Where “and” joins values, the source holds several entries; their conditions need not be identical. Identical values can stand only once. Like-named read-outs stand apart in the source and are kept apart here. Marks after values point to notes of the source that are not given here.
Columns and labels:
Plasma stability, monkey = type: in vitro ADME
Procedure: The pH of the plasma was checked and recorded. Note: a.
The final concentration of solvent was 0.5%.
The assay is performed in duplicate.

MiaPaCa-2 cells = experiment: Clonogenic assay, MiaPaCa-2; type: cell-based, human; details: for IC90: Homo sapiens, MIA PaCa-2, 3 h
Procedure: (§1) The following PSN-1 cells, PANC1 cells, MiaPaCa-2 cells, H460 cells, DLD-1 WT (wild type) cells, DLD-1 BRCA2 KO (BRCA2 deletion) cells were seeded in 10 cm vitreous cell culture plates at specific cell numbers and incubated for 2 days at 37° C. and under the conditions of 5% CO2, 95% air and 100% relative humidity. On day 3, test compounds TH302 or AST-002-P2 at the specific concentrations were added to the cells, and incubated for 3 hours together with the cells under normoxic (21% O2) and hypoxic conditions (<0.01% O2), respectively. After cells were stimulated by compounds, the cells were washed once with 1×PBS and digested into single cells with pancreatic enzymes for cell counting. The above cells in specific cell numbers were reseeded in a new culture plate and cultured for 7 days to perform single cell colony formation. When single cells in compound culture plates stimulated under normoxic conditions proliferated to about 50 cells, the cultures were removed and stained with 0.5% crystal violet for 40 minutes. After staining, cells were counted for colonies using Colony Counter (VWR) and the IC90 was calculated.

[1] = system: DLD-1 WT (wild type) cells; experiment: Clonogenic assay, DLD-1 WT; type: cell-based; details: for IC90: Homo sapiens, 3 h
Procedure: as §1

[2] = system: human lung cancer NCI-H460 subcutaneous xenograft; experiment: Human lung cancer NCI-H460 subcutaneous xenograft model, compounds B and C; type: in vivo, BALB/c nude mice; details: for relative tumor inhibition rate TGI (%): QD×5 per cycle, 2 cycles, Day 28
Procedure: BALB/c nude mice were subcutaneously inoculated with human lung cancer NCI-H460 cells to establish human lung cancer subcutaneous transplantation tumor model. […] The positive drug Irinotecan 40 mg/kg group was administered by intraperitoneal injection once every 4 days for 7 times, and observed for 4 days.

P-gp = P-gp (Homo sapiens, UniProt P08183); experiment: P-gp substrate evaluation, MDCKII-MDR1 penetration test; details: for recovery at 2 h: dog; for Pgp substrate status: with and without verapamil
Sequence of P-gp (P08183 whole entry): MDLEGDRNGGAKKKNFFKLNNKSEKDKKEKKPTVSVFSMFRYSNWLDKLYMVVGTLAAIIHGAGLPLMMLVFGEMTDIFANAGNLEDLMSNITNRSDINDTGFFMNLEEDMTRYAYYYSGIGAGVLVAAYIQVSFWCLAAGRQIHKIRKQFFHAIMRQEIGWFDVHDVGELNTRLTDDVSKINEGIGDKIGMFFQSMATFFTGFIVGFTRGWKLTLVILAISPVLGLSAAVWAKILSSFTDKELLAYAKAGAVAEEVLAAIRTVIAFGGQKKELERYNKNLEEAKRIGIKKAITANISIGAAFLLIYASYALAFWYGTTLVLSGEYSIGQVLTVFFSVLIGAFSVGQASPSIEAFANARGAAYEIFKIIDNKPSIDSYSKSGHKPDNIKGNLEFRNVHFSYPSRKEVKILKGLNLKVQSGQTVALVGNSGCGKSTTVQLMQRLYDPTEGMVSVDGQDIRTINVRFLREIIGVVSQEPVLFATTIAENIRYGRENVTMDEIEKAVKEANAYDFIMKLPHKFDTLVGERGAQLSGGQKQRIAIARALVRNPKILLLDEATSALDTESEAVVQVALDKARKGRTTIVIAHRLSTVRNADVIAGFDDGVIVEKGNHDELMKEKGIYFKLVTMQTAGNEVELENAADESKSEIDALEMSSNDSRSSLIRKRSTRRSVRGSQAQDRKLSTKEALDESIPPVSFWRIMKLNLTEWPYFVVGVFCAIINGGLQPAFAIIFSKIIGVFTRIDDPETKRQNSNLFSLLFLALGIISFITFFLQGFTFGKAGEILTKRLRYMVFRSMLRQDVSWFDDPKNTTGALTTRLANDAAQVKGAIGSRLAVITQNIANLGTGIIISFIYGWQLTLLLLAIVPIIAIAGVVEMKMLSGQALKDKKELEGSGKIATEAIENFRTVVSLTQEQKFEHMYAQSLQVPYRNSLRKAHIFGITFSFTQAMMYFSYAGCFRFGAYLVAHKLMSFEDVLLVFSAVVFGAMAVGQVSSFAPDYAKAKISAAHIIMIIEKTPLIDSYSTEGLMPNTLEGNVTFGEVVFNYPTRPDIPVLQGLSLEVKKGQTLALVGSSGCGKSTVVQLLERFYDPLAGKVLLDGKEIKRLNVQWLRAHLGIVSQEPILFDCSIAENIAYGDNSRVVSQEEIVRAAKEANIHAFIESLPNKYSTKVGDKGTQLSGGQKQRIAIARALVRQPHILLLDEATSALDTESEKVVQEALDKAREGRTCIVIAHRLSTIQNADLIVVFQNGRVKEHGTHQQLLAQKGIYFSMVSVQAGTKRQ
Procedure: (1) MDCKII-MDR1 cells were cultured in the cell culture bottle. The conditions of the incubator were 37° C., 5% of CO2, and 95% of the relative humidity. When the cell growth confluence was up to 70-90%, the cells were inoculated to the transwell.
The cell suspension was transferred to the upper compartment of the 96-well transwell, wherein each upper compartment contains 50 μL of the cell suspension. The final inoculum density was 5.45×10^5 cells/cm^2.
(1) The transwell culture plate of the MDCKII-MDRT cells was taken out from the incubator. The cell monolayer membrane was rinsed two times with the buffer solution and incubated at 37° C. for 30 min.
(2) The transport rate that the compound was transported from the top-end to the base-end was tested. 75 μL of the buffer solution contained the sample was added to each upper compartment (top-end), and 235 μL of the buffer solution was added to each lower compartment (base-end).
(3) The transport rate that the compound was transported from the base-end to the top-end was tested. 75 μL of the buffer solution was added to each upper compartment (top-end), and 235 μL of the buffer solution contained the sample was added to each lower compartment (base-end).
(6) The upper and lower transits were merged up and then incubated at 37° C. for 2 h.
(7) After the incubation was finished, 50 μL of the samples from each well of the upper compartment and the lower compartment of the transwell culture plate were respectively added to new sample tubes. 200 μL of the acetonitrile containing the internal standard (100 nM Alprazolam, 200 nM Labetalol, 200 nM caffeine and 2 μM Ketoprofen) was added to each sample tube. After the sample tubes were vortexed for 10 min, they were centrifuged at 3220 g for 30 min. 100 μL of the supernatant was taken and diluted with the same volume of the water to perform the LC-MS/MS analysis. Each sample was adopted to the three parallel incubation.
The peak area was calculated by the result of the ion chromatography. The permeability coefficient (Papp, unit: cm/s×10^−6) of the compound was calculated by the formula: […]
In the formula, “VA” refers to the volume of the solution on the acceptor (Ap→Bl was 0.235 mL, and Bl→Ap was 0.075 mL), “Area” refers to the area of the permeable membrane of the 96-well transwell (0.143 cm^2), “time” refers to the incubation time (in second), “[drug]acceptor” refers to the drug concentration of the acceptor after the incubation, and “[drug]initial, donor” refers to the initial concentration of the drug administration before the incubation.
The efflux ratio was calculated by the following formula: […]
In the formula, “Papp (B-A)” refers to the permeability coefficient from the base-end to the top-end, and the term “Papp (A-B)” refers to the permeability coefficient from the top-end to the base-end.
The recovery was calculated by the following formula: […]
In the formula, “VA” refers to the volume of the solution on the acceptor (mL), “VD” refers to the volume of the solution on the donor (mL), “[drug]acceptor” refers to the drug concentration of the acceptor after the incubation, “[drug]donor” refers to the drug concentration of the donor after the incubation, and the term “[drug]initial, donor” refers to the initial concentration of the drug administration before the incubation.

[3] = Blood-brain barrier experiment, brain and plasma concentrations after IV dosing; type: in vivo, CD-1 mice; details: CD-1, mouse; for Kp at 0.25 h / Kp at 2 h: brain/plasma, iv, 1 mg/kg; for Kp at 0.25 h: read-out: Mean Ratio (Brain/Plasma); for Kp at 2 h: single animals, read-out: Ratio (Brain/Plasma); for Cmax / Tmax: brain tissue; for Cmax / Tmax / AUC: IV 1 mg/kg; for AUC: plasma
[4] = 21% O2, read-out: IC90 Normoxia
[5] = <0.01% O2, read-out: IC90 Hypoxia
[6] = MDCK-MDR1, Recovery (%) AP-BL, verapamil 0 μM
[7] = MDCK-MDR1, Recovery (%) AP-BL, verapamil 100 μM
[8] = MDCK-MDR1, Recovery (%) BL-AP, verapamil 100 μM

Structure (SMILES)	IC90 (MiaPaCa-2 cells; [4])	IC90 (MiaPaCa-2 cells; [5])	HCR (MiaPaCa-2 cells; IC90 ratio normoxic/N2)	IC90 [1, 4]	IC90 [1, 5]	relative tumor inhibition rate TGI (%) ([2]; 20 mg/kg i.p.)	recovery at 2 h (P-gp; [6])	recovery at 2 h (P-gp; [7])	recovery at 2 h (P-gp; [8])	Pgp substrate status (P-gp)	Kp at 0.25 h [3]	Kp at 2 h [3]	Cmax [3]	Tmax [3]	AUC [3]	also measured
O=[N+]([O-])c1ccc(C(OP(=O)(N2CC2)N2CC2)C(F)(F)F)c2ccccc12 (racemic) [Compound A]	–	–	–	–	–	–	–	–	–	–	–	–	–	–	–	Remaining percentage (%) (Plasma stability, monkey; Monkey plasma, 15 min): 97.9 ± 3.72%; Remaining percentage (%) (Plasma stability, monkey; Monkey plasma, 60 min): 103 ± 4.19%; Remaining percentage (%) (Plasma stability, monkey; Monkey plasma, 90 min): 92.3 ± 2.15%; Remaining percentage (%) (Plasma stability, monkey; Monkey plasma, 120 min): 87.4% and 87.4 ± 1.59%; Remaining percentage (%) (Plasma stability, monkey; Monkey plasma, 2 h time course, 0 min): 100%; t½ (Plasma stability, monkey; Monkey plasma, in vitro): >373* min; half-life at 5 µM (Plasma stability, monkey; Monkey plasma, in vitro, read-out: t½): > 373 min; Remaining percentage (%) (Plasma stability, monkey; Monkey plasma, time course, 30 min): 107 ± 2.78%; plasma stability (Plasma stability, monkey; monkey plasma): stable
O=[N+]([O-])c1ccc([C@@H](OP(=O)(N2CC2)N2CC2)C(F)(F)F)c2ccccc12 (single isomer, unassigned) [Compound C]	> 10000 nM	159 nM	>63	> 140 nM	> 140 nM	90.56%	57.8%	61.5%	66.3%	not substrates for Pgp	0.86	1.35	445 ng/g	4.8 min	190 ng·h/mL	HCR (MiaPaCa-2 cells; IC90 ratio normoxic/N2, listed as compound C): > 63; relative tumor inhibition rate TGI (%) ([2]; 40 mg/kg i.p.): 94.33%; complete cure rate on tumors ([2]; group 6, 20 mg/kg, Day35): 20%
O=[N+]([O-])c1ccc([C@H](OP(=O)(N2CC2)N2CC2)C(F)(F)F)c2ccccc12 [Compound B]	–	–	–	–	–	88.51%	59.3%	65.2%	68.3%	not substrates for Pgp	1.59	1.38	983 ng/g	4.8 min	289 ng·h/mL	–
CC(OP(=O)(N1CC1)N1CC1)c1ccc([N+](=O)[O-])c2ccccc12 (centres unmarked) [Compound D]	–	–	–	–	–	–	–	–	–	–	–	–	–	–	–	Remaining percentage (Plasma stability, monkey; Monkey plasma, after 30 minutes): 87.66%
Cn1c(COP(=O)(NCCBr)NCCBr)cnc1[N+](=O)[O-] [TH-302, Evofosfamide]	9680 nM	388 nM	25	26200 nM	210 nM	–	–	–	–	–	–	–	–	–	–	HCR ([1]; IC90 ratio normoxic/N2): 125

— US20230339991A1, “HYPOXIA-ACTIVATED DNA ALKYLATING AGENT AND MEDICAL USE THEREOF” (ASCENTAWITS PHARMACEUTICALS, LTD., priority 2020, published 2023)
